Patent publication US20260007133A1, “HERBICIDAL COMPOSITION COMPRISING AZINE COMPOUNDS” (BASF SE, priority 2022, published 2026)

Assays:
Assay type in all cases: in vivo
Abutilon theophrasti [1] = test: Greenhouse pre-emergence (PRE) herbicidal test on ABUTH; conditions: Abutilon theophrasti, pre-emergence
Description: (§1) The culture containers used were plastic pots containing loamy sand with approximately 3.0% of humus as substrate. The seeds of the test plants were sown separately for each species.
(§2) The containers were irrigated gently to promote germination and growth and subsequently covered with transparent plastic hoods until the plants had rooted.
(§3) Depending on the species, the plants were kept at 10-25° C. and 20-35° C., respectively.
(§4) The test period extended over 2 to 4 weeks. During this time, the plants were tended and their response to the individual treatments was evaluated.
(§5) Evaluation was carried out using a scale from 0 to 100. 100 means no emergence of the plants, or complete destruction of at least the above-ground parts, and 0 means no damage or normal course of growth. A good herbicidal activity is given at values of at least 70, and very good herbicidal activity is given at values of at least 85.
(§6) As indicated application was either post emergent (POST) at the respective growth stage (GS) of the weed (BBCH code), or pre-emergent (PRE). […]

Commelina benghalensis = test: Greenhouse pre-emergence (PRE) herbicidal test on COMBE; conditions: PRE
Description: as §1, §2, §3, §4, §5, §6

Ambrosia artemisiifolia = test: Greenhouse pre-emergence (PRE) herbicidal test on AMBEL; conditions: Ambrosia artemisiifolia, pre-emergence
Description: as §1, §2, §3, §4, §5, §6

Lolium multiflorum = test: Greenhouse pre-emergence (PRE) herbicidal test on LOLMU
Description: as §1, §2, §3, §4, §5, §6

Echinochloa crus-galli = test: Greenhouse post-emergence (POST) herbicidal test on ECHCG
Description: as §1
(§7) For the post-emergence treatment, the test plants were grown to a plant height of from 3 to 15 cm, depending on the plant habit, and only then treated with the active compounds which had been suspended or emulsified in water. To this end, the test plants were either sown directly, and grown in the same containers, or they were first grown separately as seedlings and transplanted into the test containers a few days prior to treatment.
as §3, §4, §5
(§8) If not stated differently, the respective components A and B, and if appropriate, C were formulated as a 5% by weight strength emulsion concentrate and, with addition of the amount of solvent system, introduced into the spray liquor used for applying the active compound.
as §6

Geranium pusillum = test: Greenhouse post-emergence (POST) herbicidal test on GERPU; conditions: POST, GERPU, 20 DAT
Description: as §1, §7, §3, §4, §5, §8, §6

Euphorbia heterophylla = test: Greenhouse pre-emergence (PRE) herbicidal test on EPHHL; conditions: Euphorbia heterophylla, pre-emergence
Description: as §1, §2, §3, §4, §5, §6

Alopecurus myosuroides = test: Greenhouse pre-emergence (PRE) herbicidal test on ALOMY
Description: as §1, §2, §3, §4, §5, §6

Abutilon theophrasti [2] = test: Greenhouse post-emergence (POST) herbicidal test on ABUTH; conditions: Abutilon theophrasti, post-emergence
Description: as §1, §7, §3, §4, §5, §8, §6

Digitaria sanguinalis = test: Greenhouse post-emergence (POST) herbicidal test on DIGSA; conditions: Digitaria sanguinalis, post-emergence, DIGSA POST
Description: as §1, §7, §3, §4, §5, §8, §6

[3] = PRE, use rate 0.25 gai/ha, 20 DAT

With `CCc1cnc(C2=NC(C)(C(C)C)C(=O)N2)c(C(=O)O)c1` (stereo not drawn) [Imazethapyr, imazethapyr] the inhibition at […] (Abutilon theophrasti [1]; PRE, ABUTH, use rate 7.5 gai/ha, read-out: % activity) was 60%, the inhibition at […] (Commelina benghalensis; Commelina benghalensis, pre-emergence, COMBE, use rate 7.5 gai/ha, read-out: % activity) was 30% and the inhibition at 15 g/ha (Commelina benghalensis; Commelina benghalensis, pre-emergence, COMBE, use rate 15 gai/ha) was 70%. It also gave an inhibition at […] (Ambrosia artemisiifolia; PRE, AMBEL, use rate 7.5 gai/ha, read-out: % activity) of 0%, an inhibition at 15 g/ha (Ambrosia artemisiifolia; PRE, AMBEL, use rate 15 gai/ha) of 10% and an inhibition at 15 g/ha (Lolium multiflorum; Lolium multiflorum, pre-emergence, PRE, LOLMU, use rate 15 gai/ha) of 40%.
`CP(=O)(O)CC[C@H](N)C(=O)O.N` [L-Glufosinate-P-Ammonium] was tested, and the “% activity” value (Echinochloa crus-galli; POST, ECHCG, use rate 75 gai/ha, 20 DAT) was 30% and the “% activity” value (Geranium pusillum; use rate 75 gai/ha) was 65%.
For `CCNc1nc(Cl)nc(NC(C)C)n1` [Atrazine, atrazine], the inhibition at 50 g/ha (Abutilon theophrasti [1]; 480 h, PRE, ABUTH, use rate 50 gai/ha, 20 DAT) was 0%, the inhibition at 100 g/ha (Commelina benghalensis; Commelina benghalensis, pre-emergence, 480 h, COMBE, use rate 100 gai/ha, 20 DAT) was 25% and the inhibition at 50 g/ha (Geranium pusillum; Geranium pusillum, post-emergence, 480 h, use rate 50 gai/ha) was 30%. For the same compound, the inhibition at 100 g/ha (Geranium pusillum; Geranium pusillum, post-emergence, 480 h, use rate 100 gai/ha, read-out: % activity) was 75%.
With `CCCN(CCC)c1c([N+](=O)[O-])cc(C(F)(F)F)cc1[N+](=O)[O-]` [Trifluralin, trifluralin] the pest or weed control at 500 g/ha (Abutilon theophrasti [1]; 480 h, PRE, ABUTH, Trifluralin solo 500 gai/ha, 20 DAT, read-out: % activity) was 25%, the pest or weed control at 1000 g/ha (Commelina benghalensis; Commelina benghalensis, pre-emergence, 480 h, COMBE, Trifluralin solo 1000 gai/ha, 20 DAT) was 80% and the pest or weed control at 1000 g/ha (Euphorbia heterophylla; 480 h, PRE, EPHHL, Trifluralin solo 1000 gai/ha, 20 DAT) was 35%. The pest or weed control at 1000 g/ha (Alopecurus myosuroides; Alopecurus myosuroides, pre-emergence, 480 h, PRE, ALOMY, Trifluralin solo 1000 gai/ha, 20 DAT) was 65%, the pest or weed control at 500 g/ha (Ambrosia artemisiifolia; 480 h, PRE, AMBEL, Trifluralin solo 500 gai/ha, 20 DAT, read-out: % activity) was 10% and the pest or weed control at 500 g/ha (Geranium pusillum; Geranium pusillum, post-emergence, 480 h, Trifluralin solo 500 gai/ha, read-out: % activity) was 25%. For the same compound, the pest or weed control at 1000 g/ha (Geranium pusillum; Geranium pusillum, post-emergence, 480 h, Trifluralin solo 1000 gai/ha) was 85%, the pest or weed control at 500 g/ha (Lolium multiflorum; Lolium multiflorum, pre-emergence, 480 h, PRE, LOLMU, Trifluralin solo 500 gai/ha, 20 DAT, read-out: % activity) was 5% and the pest or weed control at 1000 g/ha (Lolium multiflorum; Lolium multiflorum, pre-emergence, 480 h, PRE, LOLMU, Trifluralin solo 1000 gai/ha, 20 DAT) was 15%. The pest or weed control at 500 g/ha (Abutilon theophrasti [2]; 480 h, POST, ABUTH, Trifluralin solo 500 gai/ha, 20 DAT, read-out: % activity) was 15% and the pest or weed control at 1000 g/ha (Abutilon theophrasti [2]; 480 h, POST, ABUTH, Trifluralin solo 1000 gai/ha, 20 DAT) was 70%.
For `CS(=O)(=O)c1cc(C(F)(F)F)ccc1C(=O)c1cnoc1C1CC1` [Isoxaflutole, isoxaflutole], the inhibition at 6.3 g/ha (Abutilon theophrasti [1]; ABUTH PRE, use rate 6.3 gai/ha) was 45%, the inhibition at 6.3 g/ha (Euphorbia heterophylla; EPHHL PRE, use rate 6.3 gai/ha) was 45% and the inhibition at 25 g/ha (Euphorbia heterophylla; EPHHL PRE, use rate 25 gai/ha) was 75%. The inhibition at 6.3 g/ha (Alopecurus myosuroides; Alopecurus myosuroides, pre-emergence, ALOMY PRE, use rate 6.3 gai/ha) was 0%, the inhibition at 25 g/ha (Alopecurus myosuroides; Alopecurus myosuroides, pre-emergence, ALOMY PRE, use rate 25 gai/ha) was 0% and the inhibition at 6.3 g/ha (Ambrosia artemisiifolia; AMBEL PRE, use rate 6.3 gai/ha) was 25%. It also gave an inhibition at 6.3 g/ha (Lolium multiflorum; Lolium multiflorum, pre-emergence, LOLMU PRE, use rate 6.3 gai/ha) of 0%.
`COc1cnc(OC)n2nc(NS(=O)(=O)c3c(OCC(F)F)cccc3C(F)(F)F)nc12` [Penoxsulam, penoxsulam] showed an inhibition at 2 g/ha (Echinochloa crus-galli; Echinochloa crus-galli, post-emergence, ECHCG POST, use rate 2 gai/ha, read-out: % activity) of 10%, an inhibition at 4 g/ha (Echinochloa crus-galli; Echinochloa crus-galli, post-emergence, ECHCG POST, use rate 4 gai/ha) of 35% and an inhibition at 4 g/ha (Abutilon theophrasti [2]; ABUTH POST, use rate 4 gai/ha) of 0%. For the same compound, the inhibition at 2 g/ha (Digitaria sanguinalis; use rate 2 gai/ha, read-out: % activity) was 0% and the inhibition at 4 g/ha (Digitaria sanguinalis; use rate 4 gai/ha) was 10%.
For `CCOC1Oc2ccc(OS(C)(=O)=O)cc2C1(C)C` (stereo not drawn) [Ethofumesate, ethofumesate], the inhibition at 250 g/ha (Ambrosia artemisiifolia; 480 h, PRE, use rate 250 gai/ha, 20 DAT) was 0% and the inhibition at 1000 g/ha (Lolium multiflorum; Lolium multiflorum, pre-emergence, 480 h, PRE, use rate 1000 gai/ha, 20 DAT) was 60%.
With `COC(=O)c1ccc(CNS(C)(=O)=O)cc1S(=O)(=O)NC(=O)Nc1nc(OC)cc(OC)n1` [Mesosulfuron-Methyl, mesosulfuron-methyl] the “% activity” value (Commelina benghalensis; use rate 0.25 gai/ha, 20 DAT) was 35%, the “% activity” value (Alopecurus myosuroides; [3]) was 0% and the “% activity” value (Alopecurus myosuroides; PRE, use rate 1 gai/ha, 20 DAT) was 10%. For the same compound, the “% activity” value (Lolium multiflorum; [3]) was 0% and the “% activity” value (Lolium multiflorum; PRE, use rate 1 gai/ha, 20 DAT) was 0%.
